pIC50: −log10 of the molar value.
How the values were obtained:
[1] = biological target: [35S]-TBPS binding in rat brain cortical membranes; assay: Steroid inhibition of [35S]-TBPS binding, rat brain cortical membranes; conditions: 3 nM [35S]-TBPS, in the presence of 5 μM GABA, read-out: 35S-TBPS Radioligand Displacement (IC50)
Outline: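 Washed P2 cortical membranes from Sprague-Dawley rats were incubated 90 min at room temperature with 3 nM [35S]-TBPS, 5 μM GABA and test steroid (0.5% DMSO) in 200 mM NaCl/50 mM Na–K phosphate, pH 7.4. Nonspecific binding was defined with 2 μM unlabeled TBPS, and samples were filtered and counted. IC50 and Imax came from non-linear fits, reported as mean ± SEM.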

[2] = biological target: T1, recombinant α1β2γ2 GABAA receptors (Homo sapiens, UniProt P14867+P47870); assay: Patch clamp electrophysiology (QPatch) in LTK cells stably transfected with α1β2γ2; type: cell-based; conditions: 10 μM compound, 2 μM GABA (EC20), read-out: GABA (α1β2γ2) Qpatch in Ltk, % efficacy at 10 μM
T1 construct: expressed in transfected cells; host or cells: LTK cells, stably transfected
T1 sequence (P14867 28-456): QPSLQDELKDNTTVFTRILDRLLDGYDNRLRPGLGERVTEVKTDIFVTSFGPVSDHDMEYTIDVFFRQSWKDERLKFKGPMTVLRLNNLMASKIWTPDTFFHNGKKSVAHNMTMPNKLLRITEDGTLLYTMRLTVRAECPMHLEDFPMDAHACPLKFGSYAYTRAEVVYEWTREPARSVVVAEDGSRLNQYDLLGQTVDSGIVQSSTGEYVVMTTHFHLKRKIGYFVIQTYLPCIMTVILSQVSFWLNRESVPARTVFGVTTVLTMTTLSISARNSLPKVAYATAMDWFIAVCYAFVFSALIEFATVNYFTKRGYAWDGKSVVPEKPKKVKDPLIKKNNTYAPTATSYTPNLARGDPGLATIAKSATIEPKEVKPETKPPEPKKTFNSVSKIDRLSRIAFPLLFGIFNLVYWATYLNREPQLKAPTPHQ
T1 sequence (P47870 26-512): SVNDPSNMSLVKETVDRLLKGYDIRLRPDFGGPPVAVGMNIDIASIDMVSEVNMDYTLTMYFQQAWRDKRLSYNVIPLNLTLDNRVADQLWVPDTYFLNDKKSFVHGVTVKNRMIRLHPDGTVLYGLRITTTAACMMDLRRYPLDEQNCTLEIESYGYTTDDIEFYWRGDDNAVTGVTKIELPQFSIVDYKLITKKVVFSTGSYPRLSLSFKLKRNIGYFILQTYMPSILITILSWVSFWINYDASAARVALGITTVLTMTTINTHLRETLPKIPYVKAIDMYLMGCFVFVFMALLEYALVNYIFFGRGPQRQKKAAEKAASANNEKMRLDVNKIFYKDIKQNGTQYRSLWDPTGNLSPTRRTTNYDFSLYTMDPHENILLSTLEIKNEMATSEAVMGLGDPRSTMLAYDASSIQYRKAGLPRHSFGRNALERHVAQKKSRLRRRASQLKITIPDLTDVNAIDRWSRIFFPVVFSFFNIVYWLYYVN
T1 sequence (P18507 40-475 partner): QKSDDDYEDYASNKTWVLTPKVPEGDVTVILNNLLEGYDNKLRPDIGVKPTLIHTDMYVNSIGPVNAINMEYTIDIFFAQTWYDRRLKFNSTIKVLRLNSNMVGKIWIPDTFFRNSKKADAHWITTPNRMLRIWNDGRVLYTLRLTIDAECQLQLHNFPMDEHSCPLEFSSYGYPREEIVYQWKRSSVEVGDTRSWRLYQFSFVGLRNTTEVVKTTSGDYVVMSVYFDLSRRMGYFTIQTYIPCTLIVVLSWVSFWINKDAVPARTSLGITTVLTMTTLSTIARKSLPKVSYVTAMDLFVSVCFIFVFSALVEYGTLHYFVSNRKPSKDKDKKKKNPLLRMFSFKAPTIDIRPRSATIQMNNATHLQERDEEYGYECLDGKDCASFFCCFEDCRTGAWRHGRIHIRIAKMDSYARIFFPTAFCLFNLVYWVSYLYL

[3] = biological target: T2, recombinant α4β3δ GABAA receptors (Homo sapiens, UniProt P28472+P48169); assay: Manual patch clamp electrophysiology in CHO cells transiently transfected with α4β3δ; type: cell-based; conditions: 10 μM compound, 2 μM GABA (EC20), read-out: GABA (α4β3δ) Manual patch in CHO, % efficacy at 10 μM
T2 construct: expressed in transfected cells; host or cells: CHO cells, transiently transfected (Lipofectamine)
T2 sequence (P48169 36-554): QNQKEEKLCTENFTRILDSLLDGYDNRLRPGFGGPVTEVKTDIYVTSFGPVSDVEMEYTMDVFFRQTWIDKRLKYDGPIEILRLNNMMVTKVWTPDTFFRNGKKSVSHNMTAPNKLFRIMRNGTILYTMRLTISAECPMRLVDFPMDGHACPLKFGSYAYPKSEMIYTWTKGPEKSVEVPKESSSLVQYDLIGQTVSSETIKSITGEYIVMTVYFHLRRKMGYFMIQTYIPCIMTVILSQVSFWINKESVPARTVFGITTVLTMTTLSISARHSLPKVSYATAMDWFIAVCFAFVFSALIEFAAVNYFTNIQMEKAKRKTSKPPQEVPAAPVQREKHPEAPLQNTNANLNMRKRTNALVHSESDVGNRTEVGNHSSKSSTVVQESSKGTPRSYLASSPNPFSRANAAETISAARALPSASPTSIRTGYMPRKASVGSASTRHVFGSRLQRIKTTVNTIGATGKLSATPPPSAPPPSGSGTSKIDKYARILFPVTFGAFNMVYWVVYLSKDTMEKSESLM
T2 sequence (P28472 26-473): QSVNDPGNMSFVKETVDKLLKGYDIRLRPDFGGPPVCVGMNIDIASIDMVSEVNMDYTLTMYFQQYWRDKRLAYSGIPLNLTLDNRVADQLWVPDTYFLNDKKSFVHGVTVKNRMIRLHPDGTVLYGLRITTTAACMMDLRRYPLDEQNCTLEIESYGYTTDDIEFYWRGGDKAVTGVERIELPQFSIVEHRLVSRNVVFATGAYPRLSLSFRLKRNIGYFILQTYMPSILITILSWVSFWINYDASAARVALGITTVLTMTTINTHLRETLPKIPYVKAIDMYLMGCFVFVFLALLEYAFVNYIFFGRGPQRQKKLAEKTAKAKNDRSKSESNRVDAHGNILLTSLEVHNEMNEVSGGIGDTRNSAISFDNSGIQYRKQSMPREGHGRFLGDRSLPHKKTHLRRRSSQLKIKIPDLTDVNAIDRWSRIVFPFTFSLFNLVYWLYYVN
T2 sequence (O14764 25-452 partner): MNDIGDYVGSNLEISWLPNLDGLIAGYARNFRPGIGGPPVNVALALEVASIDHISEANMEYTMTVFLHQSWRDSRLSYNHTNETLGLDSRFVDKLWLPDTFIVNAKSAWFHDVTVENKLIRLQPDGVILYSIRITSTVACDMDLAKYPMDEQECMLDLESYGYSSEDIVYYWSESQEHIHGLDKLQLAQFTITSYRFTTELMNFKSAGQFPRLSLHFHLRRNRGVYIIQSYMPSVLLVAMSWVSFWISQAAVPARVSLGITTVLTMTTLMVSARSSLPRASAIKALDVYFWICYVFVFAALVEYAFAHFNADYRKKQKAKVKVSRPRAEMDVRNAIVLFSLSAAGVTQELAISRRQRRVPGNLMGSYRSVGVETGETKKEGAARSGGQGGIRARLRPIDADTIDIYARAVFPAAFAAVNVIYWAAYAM

[4] = biological target: T3, GABAA receptors composed of the α1β2γ2 subunits (GABRA1/GABRB2/GABRG2) (Homo sapiens, UniProt P14867+P47870); assay: Two Electrode Voltage Clamp (TEVC), GABA receptor potentiation in Xenopus laevis oocytes, α1β2γ2; type: cell-based; conditions: 10 μM compound, 10 μM GABA, read-out: GABA (α1β2γ2) % efficacy at 10 μM
T3 construct: expressed in transfected cells; host or cells: Xenopus laevis oocytes, injected (ratio 1:1:1)
T3 sequence (P14867 28-456): as the sequence (P14867 28-456) above
T3 sequence (P47870 26-512): as the sequence (P47870 26-512) above
T3 sequence (P18507 40-475 partner): as the sequence (P18507 40-475 partner) above

[5] = biological target: T4, GABAA receptors composed of the α4β3δ subunits (GABRA4/GABRB3/GABRD) (Homo sapiens, UniProt P28472+P48169); assay: Two Electrode Voltage Clamp (TEVC), GABA receptor potentiation in Xenopus laevis oocytes, α4β3δ; type: cell-based; conditions: 10 μM compound, 3 μM GABA, read-out: GABA (α4β3δ) % efficacy at 10 μM
T4 construct: expressed in transfected cells; host or cells: Xenopus laevis oocytes, injected (ratio 5:1:5)
T4 sequence (P48169 36-554): as the sequence (P48169 36-554) above
T4 sequence (P28472 26-473): as the sequence (P28472 26-473) above
T4 sequence (O14764 25-452 partner): as the sequence (O14764 25-452 partner) above
Protocol: The Two Electrode Voltage Clamp (TEVC) technique was used to investigate the effects of compounds at a concentration of 10 μM on GABAA receptors composed of the α1β2γ2 or α4β3δ subunits expressed in oocytes from the Xenopus laevis. GABA-evoked currents were recorded from oocytes that expressed the GABA receptors and the modulatory effects of the test items on these currents were investigated.
Ovaries were harvested from Xenopus laevis females that had been deeply anesthetized by cooling at 4° C. and immersion in Tricaine methanesulfonate (MS-222 at a concentration of 150 mg/L) in sodium bicarbonate (300 mg/L). Once anesthetized the animal was decapitated and pithed following the rules of animal rights from the Geneva canton. A small piece of ovary was isolated for immediate preparation while the remaining part was placed at 4° C. in a sterile Barth solution containing in mM NaCl 88, KCl 1, NaHCO3 2.4, HEPES 10, MgSO4·7H2O 0.82, Ca(NO3)2·4H2O 0.33, CaCl2·6H2O 0.41, at pH 7.4, and supplemented with 20 μg/ml of kanamycin, 100 unit/ml penicillin and 100 μg/ml streptomycin. All recordings were performed at 18° C. and cells were super-fused with medium containing in mM: NaCl 82.5, KCl 2.5, HEPES 5, CaCl2·2H2O, ·6H2O 1, pH 7.4.
Plasmids containing the RNAs of the human GABRA1/GABRB2/GABRG2 and GABRA4/GABRB3/GABRD genes were injected into oocytes using a proprietary automated injection device (Hogg el al., J. Neurosci. Methods, (2008) 169: 65-75). These genes encode for the α1β2γ2 and α4β3δ GABAA subunits respectively. Receptor expression was assessed using electrophysiology at least two days later. The ratio of RNA injection for α1β2γ2 was 1:1:1 and for α4β3δ was 5:1:5. Electrophysiological recordings were made using an automated process equipped with standard TEVC and data were captured and analyzed using a proprietary data acquisition and analysis software running under Matlab (Mathworks Inc.). The membrane potential of the oocytes was maintained at −80 mV throughout the experiments. To explore the effects of proprietary compounds, currents were evoked by applying 10 μM (α1β2γ2) or 3 μM (α4β3δ) GABA for 30 s. These concentrations approximated the EC50 concentration of GABA at each receptor subtype. Oocytes were then re-exposed to GABA again for 30 s. 15 s after beginning the GABA application, test article was co-applied at a concentration of 10 μM for 15 s. Potentiation of the peak current was assessed. Data was filtered at 10 Hz, captured at 100 Hz and analyzed using proprietary data acquisition and analysis software running under Matlab (Mathworks Inc.). For statistical analysis values were computed either with Excel (Microsoft) or Matlab (mathworks Inc.). To obtain mean measurements with standard deviations, all experiments were carried out using at least three cells.

Row | SMILES | pIC50 [1] | Emax at 10 µM [2] [%] | Emax at 10 µM [3] [%] | melting point [°C] | Emax at 10 µM [4] [%] | Emax at 10 µM [5] [%]
1 | COC[C@]12CC[C@@](C)(O)C[C@@H]1CC[C@H]1[C@@H]3CC[C@H](C(=O)Cn4nccn4)[C@@]3(C)CC[C@@H]12 [Compound 1] | 7.30 to 8.00 | 100 to 500 | > 500 |  |  | 
2 | COC[C@]12CC[C@@](C)(O)C[C@@H]1CC[C@H]1[C@@H]3CC[C@H](C(=O)Cn4ccnn4)[C@@]3(C)CC[C@@H]12 [Compound 3] | < 6.30 |  |  | 72 to 74 |  | 
3 | COC[C@]12CC[C@@](C)(O)C[C@@H]1CC[C@H]1[C@@H]3CC[C@H](C(=O)CN4CCN(C)CC4)[C@@]3(C)CC[C@@H]12 [Compound 8] | < 6.30 |  |  | 136 to 137 |  | 
4 | COC[C@]12CC[C@@](C)(O)C[C@@H]1CC[C@H]1[C@@H]3CC[C@H](C(=O)Cn4cc(C#N)cn4)[C@@]3(C)CC[C@@H]12 [Compound 13] | 7.00 to 7.30 |  |  | 141 to 142 | 1000 to 1500 | 
5 | COC[C@]12CC[C@@](C)(O)C[C@@H]1CC[C@H]1[C@@H]3CC[C@H](C(=O)Cn4ncnn4)[C@@]3(C)CC[C@@H]12 [Compound 14] | 7.30 to 8.00 | 100 to 500 | > 500 | 72 to 75 |  | 
6 | COC[C@]12CC[C@@](C)(O)C[C@@H]1CC[C@H]1[C@@H]3CC[C@H](C(=O)Cn4cnnn4)[C@@]3(C)CC[C@@H]12 [Compound 15] | 6.30 to 7.00 | > 500 | 100 to 500 | 88 to 91 |  | 
7 | COC[C@]12CC[C@@](C)(O)C[C@@H]1CC[C@H]1[C@@H]3CC[C@H](C(=O)Cn4nnnc4C)[C@@]3(C)CC[C@@H]12 [Compound 16] | 7.30 to 8.00 | > 500 | > 500 |  |  | 
8 | COC[C@]12CC[C@@](C)(O)C[C@@H]1CC[C@H]1[C@@H]3CC[C@H](C(=O)Cn4ccc(C#N)n4)[C@@]3(C)CC[C@@H]12 [Compound 19] |  | 100 to 500 | 100 to 500 |  |  | 
9 | COC[C@]12CC[C@@](C)(O)C[C@H]1CC[C@H]1[C@@H]3CC[C@H](C(=O)Cn4cc(C#N)cn4)[C@@]3(C)CC[C@@H]12 [Compound 27] | > 8.00 |  |  | 176 to 178 | 1000 to 1500 | 
10 | COC[C@]12CC[C@@](C)(O)C[C@H]1CC[C@H]1[C@@H]3CC[C@H](C(=O)Cn4nnnc4C)[C@@]3(C)CC[C@@H]12 [Compound 30] | > 8.00 | 100 to 500 | > 500 |  |  | 
11 | COC[C@]12CC[C@@](C)(O)C[C@H]1CC[C@H]1[C@@H]3CC[C@H](C(=O)Cn4cc(Cl)cn4)[C@@]3(C)CC[C@@H]12 [Compound 34] | > 8.00 |  |  | 163 to 165 | 50 to 500 | 
12 | COC[C@]12CC[C@@](C)(O)C[C@@H]1CC[C@H]1[C@@H]3CC[C@H](C(=O)Cn4nc5ccc(Cl)cc5n4)[C@@]3(C)CC[C@@H]12 [Compound 35] | 7.30 to 8.00 | 100 to 500 | 100 to 500 |  |  | 
13 | COC[C@]12CC[C@@](C)(O)C[C@@H]1CC[C@H]1[C@@H]3CC[C@H](C(=O)Cn4nnc5ccc(Cl)cc54)[C@@]3(C)CC[C@@H]12 [Compound 36] | 7.30 to 8.00 | 100 to 500 | 100 to 500 |  |  | 
14 | COC[C@]12CC[C@@](C)(O)C[C@@H]1CC[C@H]1[C@@H]3CC[C@H](C(=O)Cn4nnc5cc(Cl)ccc54)[C@@]3(C)CC[C@@H]12 [Compound 37] | 7.30 to 8.00 | > 500 | > 500 |  |  | 
15 | COC[C@]12CC[C@@](C)(O)C[C@@H]1CC[C@H]1[C@@H]3CC[C@H](C(=O)Cn4nc5ccc(F)cc5n4)[C@@]3(C)CC[C@@H]12 [Compound 43] | > 8.00 | > 500 | 100 to 500 |  |  | 
16 | COC[C@]12CC[C@@](C)(O)C[C@@H]1CC[C@H]1[C@@H]3CC[C@H](C(=O)Cn4nnc5ccc(F)c(F)c54)[C@@]3(C)CC[C@@H]12 [Compound 52] | 7.30 to 8.00 | 100 to 500 | > 500 |  |  | 
17 | COC[C@]12CC[C@@](C)(O)C[C@@H]1CC[C@H]1[C@@H]3CC[C@H](C(=O)Cn4nc5ccc(F)c(F)c5n4)[C@@]3(C)CC[C@@H]12 [Compound 54] | 7.30 to 8.00 | 100 to 500 | > 500 |  |  | 
18 | COC[C@]12CC[C@@](C)(O)C[C@@H]1CC[C@H]1[C@@H]3CC[C@H](C(=O)Cn4nc5cc(F)cc(F)c5n4)[C@@]3(C)CC[C@@H]12 [Compound 55] | 7.00 to 7.30 | > 500 | > 500 |  |  | 
19 | COC[C@]12CC[C@@](C)(O)C[C@H]1CC[C@H]1[C@@H]3CC[C@H](C(=O)Cn4nc5ccc(Cl)cc5n4)[C@@]3(C)CC[C@@H]12 [Compound 76] | > 8.00 | > 500 | > 500 |  |  | 
20 | COC[C@]12CC[C@@](C)(O)C[C@H]1CC[C@H]1[C@@H]3CC[C@H](C(=O)Cn4nc5ccc(F)c(F)c5n4)[C@@]3(C)CC[C@@H]12 [Compound 79] | > 8.00 |  |  |  | 500 to 1000 | 1000 to 1500
21 | COC[C@]12CC[C@@](C)(O)C[C@@H]1CC[C@H]1[C@@H]3CC[C@H](C(=O)Cn4nnc5cc(F)c(F)cc54)[C@@]3(C)CC[C@@H]12 [Compound 98] | 7.00 to 7.30 |  |  |  | 500 to 1000 | 1000 to 1500
22 | COC[C@]12CC[C@@](C)(O)C[C@@H]1CC[C@H]1[C@@H]3CC[C@H](C(=O)Cn4ncc5nccnc54)[C@@]3(C)CC[C@@H]12 [Compound 102] | 6.30 to 7.00 |  |  |  | 50 to 500 | 50 to 500
23 | COC[C@]12CC[C@@](C)(O)C[C@@H]1CC[C@H]1[C@@H]3CC[C@H](C(=O)Cn4nc5ccc(OC(F)(F)F)cc5n4)[C@@]3(C)CC[C@@H]12 [Compound 104] | 7.00 to 7.30 |  |  |  | 50 to 500 | 1000 to 1500
24 | COC[C@]12CC[C@@](C)(O)C[C@@H]1CC[C@H]1[C@@H]3CC[C@H](C(=O)Cn4ncc5cc(Cl)ccc54)[C@@]3(C)CC[C@@H]12 [Compound 105] | < 6.30 |  |  |  | 50 to 500 | 1000 to 1500
25 | COC[C@]12CC[C@@](C)(O)C[C@@H]1CC[C@H]1[C@@H]3CC[C@H](C(=O)Cn4cc5cc(Cl)ccc5n4)[C@@]3(C)CC[C@@H]12 [Compound 106] | 6.30 to 7.00 |  |  |  | 50 to 500 | 1000 to 1500
26 | COC[C@]12CC[C@@](C)(O)C[C@@H]1CC[C@H]1[C@@H]3CC[C@H](C(=O)Cn4nc5ccc(Cl)c(F)c5n4)[C@@]3(C)CC[C@@H]12 [Compound 109] | 7.00 to 7.30 |  |  |  | 50 to 500 | 1000 to 1500
27 | COC[C@]12CC[C@@](C)(O)C[C@@H]1CC[C@H]1[C@@H]3CC[C@H](C(=O)Cn4cc5ccc(Cl)cc5n4)[C@@]3(C)CC[C@@H]12 [Compound 113] | 6.30 to 7.00 |  |  |  | 50 to 500 | 500 to 1000
